From patent US11045456B2, “Compositions and methods for treating COPD and other inflammatory conditions” (Georgia State University Research Foundation, Inc., priority 2015, dated 2021)
Numbered stars: 1 amine (or outer) side, 2 acyl side, 3 side chain; on linkers, the order of the positions; unused ones are H or OH. Bridge positions count the residues as written; N and C are the ends. Square brackets hold non-standard residues; d marks the D form. Peptide text beside a SMILES is read from it. I, II: the chains in the order shown. Actinocin(9to1) = Cc1c2oc3c(C)ccc(C(=O)[*:1])c3nc-2c(C(=O)[*:2])c(N)c1=O; NMeV = CN[C@H](C(=O)O)C(C)C; Sar = CNCC(=O)O

Assays:
PDE4B2 = PDE4B2 expression (RT-PCR) in BEAS-2B cells; type: cell-based, human; details: for NTHi-induced PDE4B2 expression (synergy with NTHi): cAMP elevator / PKA or Epac activator with NTHi
Description: (§1) Bacterial strains and culture condition. Clinical isolates of NTHi strain 12 were used in this study (Ishinaga et al., EMBO J., 26(4):1150-1162, 2007). Bacteria were grown on chocolate agar plates at 37° C. in an atmosphere of 5% CO2 overnight and subsequently inoculated in brain heart infusion (BHI) broth supplemented with 3.5 μg/mL NAD and hemoglobin (BD Biosciences). After overnight incubation, the bacteria were subcultured into fresh broth and the log phase bacteria, monitored by measurement of optical density (OD) value, were washed and suspended in DMEM for in vitro cell experiments and in isotonic saline for in vivo animal experiments. For all in vitro experiments except the dose dependent experiment, NTHi was treated at multiplicity of infection (MOI) of 50.
(§2) Cell culture. All media described below were supplemented with 10% fetal bovine serum (Sigma-Aldrich). Human bronchial epithelial BEAS-2B cells were maintained in RPMI medium (Life Technologies) (ATCC® CRL-9609™). Human primary bronchial epithelial NHBE (Lonza) cells were maintained in bronchial epithelial growth media (BEGM) supplemented with BEGM SingleQuots (Jono et al., J. Biol. Chem. 277(47):45547-45557, 2002). BEAS-2B cells stably expressing human PDE4B2 (PDE4B2-stable cells) were obtained by plasmid transfection following Geneticin selection (300 μg/mL). Cells were cultured in a humidified atmosphere of 5% CO2 at 37° C.
Plasmids, transfections and luciferase assay. The expression plasmids, constitutively active forms of IKKα (IKKα-CA, S176E/S180E) and IKKβ (IKKβ-CA, S177E/S181E) and a dominant negative form of IκBα (IκBα-DN, S32A/S36A) were previously described (Shuto et al., Proc. Natl. Acad. Sci. USA, 98(15):8774-8779, 2001; Ishinaga et al., supra). Luciferase reporter construct of NF-κB (pGL4.32) was purchased from Promega. Human PDE4B2, p65 (RelA) and PKA-Cβ1/2 cDNA sequences were generated and inserted into the BamHI and HindIII sites of the pcDNA3.1/mycHis(−) vector. Mutant p65 and PDE4B2-D392A were generated by using PRIMESTAR® Max (Takara). Empty vector was used as a control and was also added where necessary to ensure an equivalent amount of input DNA. All transient transfections were carried out in triplicate using TRANSIT-LT1® reagent (Minis) following the manufacturer's instruction.

p65 = p65 phosphorylation by Phos-tag PAGE in BEAS-2B cells; type: cell-based, human
Description: Phos-tag PAGE. Recombinant p65 proteins or nuclear extracts recovered without EDTA/EGTA were separated by SDS-PAGE, with 6% gels containing 50 μM Mn^2+-Phos-tag Acrylamide and transferred to PVDF membrane according to the manufacture's instructions (Kinoshita et al., Mol. Cell. Proteomics 5(4):749-757, 2006.

PDE4B [1] = experiment: PDE4B mRNA expression (Q-PCR) in BEAS-2B cells stimulated with NTHi; type: cell-based, human; details: BEAS-2B; ActD 5 ng/ml and Rof 0.1 μM 1 hour, then 1.5-hour NTHi
Description: as §1, §2

PDE4B [2] = experiment: PDE4B mRNA expression in lung tissues of NTHi-inoculated mice; details: mouse lung; DEX 2 mg/kg i.p. and Rof 5 mg/kg i.p. 2 h before NTHi; after 5 h
[3] = tested on: NTHi-induced inflammation; experiment: NTHi-induced inflammation in mouse lung (proinflammatory mediator mRNA, H&E staining); type: in vivo; details: DEX 2 mg/kg i.p. and Rof 5 mg/kg i.p. 2 h before NTHi 5×10^7 CFU/lung
Description: Mice and animal experiments. For NTHi-induced inflammation in C57BL/6J mice (7 weeks old), anaesthetized mice were intratracheally inoculated with NTHi at a concentration of 5×10^7 CFU per mouse and saline was inoculated as control.
. We pre-treated BEAS-2B cells with Rof (1 μM), FSK (1 μM), Iso (0.1 μM) and DEX (10 nM) for 1 h followed by 1.5 h stimulation with NTHi, and PDE4B mRNA expression was analyzed by Q-PCR (FIGS. 7A and 7B). We also pre-treated BEAS-2B cells with Rof (0.1 μM) and DEX (6.5 nM) for 1 h followed by 1.5 h stimulation with NTHi, and PDE4B2 mRNA expression was analyzed by semi-quantitative RT-PCR (FIG. 7C). To assess protein expression, BEAS-2B cells were pre-treated with Rof (0.1 μM) and DEX (100 nM) for 1 h followed by a 5 h stimulation with NTHi, and PDE4B protein expression was analyzed by immunoblot (FIG. 7D). Each target data were normalized with NTHi treated. Data are mean±SD (n=3); *p<0.05 vs NTHi; ^†p<0.05 vs Rof+NTHi. […] After 5 h, mRNA expression in lung tissues were analyzed by Q-PCR for assessing the expression of PDE4B or various proinflammatory mediators and lung tissues were stained against PDE4B (Magnification ×200, Scale bar, 100 μm) (FIG. 7F) and assessed for inflammation using H&E staining (FIG. 7H).

[4] = BEAS-2B cells, inhibitor treatment

## O=P1(O)OC[C@H]2O[C@@H](n3cnc4c(Nc5ccccc5)ncnc43)[C@@H](O)C2O1 (stereo partly shown) [6-Phe-cAMP, N^6-Phenyl-cAMP]
PDE4B2; BEAS-2B cells
  NTHi-induced PDE4B2 expression (synergy with NTHi): synergistically enhanced
PDE4B2; in IKKβ-CA- but not IKKα-CA-transfected BEAS-2B cells
  PDE4B2 expression: synergistically enhanced
p65; roflumilast as co-treatment with NTHi
  phosphorylation of p65 (induction): induced this phosphorylation

## CO[C@@H]1[C@@H]2OP(=O)(O)OC[C@H]2O[C@H]1n1c(Sc2ccc(Cl)cc2)nc2c(N)ncnc21 [8-pCPT-2′-O-Me-cAMP]
PDE4B2; BEAS-2B cells
  NTHi-induced PDE4B2 expression (synergy with NTHi): did not markedly synergize

## Cc1c2oc3c(C)ccc(C(=O)N[C@@H]4C(=O)N[C@H](C(C)C)C(=O)N5CCC[C@H]5C(=O)N(C)CC(=O)N(C)[C@@H](C(C)C)C(=O)O[C@@H]4C)c3nc-2c(C(=O)N[C@@H]2C(=O)N[C@H](C(C)C)C(=O)N3CCC[C@H]3C(=O)N(C)CC(=O)N(C)[C@@H](C(C)C)C(=O)O[C@@H]2C)c(N)c1=O [ActD, actinomycin D] (I: T[dV]P[Sar][NMeV] / II: T[dV]P[Sar][NMeV]; ester I:1-I:C, II:1-II:C; linker I:N-II:N via Actinocin(9to1))
PDE4B [1]
  PDE4B induction by NTHi and roflumilast: completely abrogated

## C[C@@H]1C[C@H]2[C@@H]3CCC4=CC(=O)C=C[C@]4(C)[C@@]3(F)[C@@H](O)C[C@]2(C)[C@@]1(O)C(=O)CO [Dexamethasone, dexamethasone]
PDE4B [2]
  PDE4B induction by NTHi and Rof: suppresses
[3]
  efficacy of Rof in suppressing NTHi-induced inflammation: improves the efficacy of Rof

## O=S(=O)(NCCNC/C=C/c1ccc(Br)cc1)c1cccc2cnccc12 [H89]
p65
  phosphorylation of p65 induced by overexpression of PKA-Cβ1 (inhibition): inhibited

## NC(=O)Nc1sc(-c2ccc(F)cc2)cc1C(N)=O [IKKβ inhibitor]
PDE4B2; [4]
  induction of PDE4B2 by roflumilast alone: did not affect
  synergistic induction of PDE4B2 by NTHi and roflumilast: significantly inhibited

## COc1cccc(-c2cc(=O)c3ccccc3o2)c1N [PD98059]
p65
  phosphorylation of p65 induced by overexpression of PKA-Cβ1 (inhibition): not

## Nc1ncnc2c1nc(Sc1ccc(Cl)cc1)n2[C@@H]1O[C@@H]2COP(O)(=S)O[C@H]2[C@H]1O (stereo partly shown) [Rp-8-CPT-cAMPS]
p65
  phosphorylation of p65 induced by co-treatment of roflumilast with NTHi (inhibition): inhibited

## C[S+]([O-])c1ccc(-c2nc(-c3ccncc3)c(-c3ccc(F)cc3)[nH]2)cc1 (stereo not shown) [SB203580]
p65
  phosphorylation of p65 induced by overexpression of PKA-Cβ1 (inhibition): not
